Measured values: PubChem BioAssay (NCI)
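Following 48 hours of exposure in 96-well plates, responses at five concentrations were used to interpolate endpoints linearly. GI50: concentration for 50% inhibition of growth. TGI: total growth inhibition.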

How the values were obtained:
Experiment in all cases: NCI tumour cell line growth inhibition, 48 h; in the data active means GI50 below about 0.43 µM; inactive means the rest
[1] = tested on: SF-295 CNS
[2] = tested on: TK-10 renal
[3] = tested on: HOP-62 NSCLC
[4] = tested on: SK-OV-3 ovarian
[5] = tested on: DU-145 prostate
[6] = tested on: SF-539 CNS
[7] = tested on: SW-620 colon
[8] = tested on: NCI-H23 lung
[9] = tested on: A549 NSCLC
[10] = tested on: NCI-H226 lung
[11] = tested on: 786-0 renal
[12] = tested on: SR leukemia
[13] = tested on: HCT-116 colon
[14] = tested on: MDA-MB-231 breast
[15] = tested on: BT-549 breast
[16] = tested on: T-47D breast
[17] = tested on: SK-MEL-2 melanoma
[18] = tested on: OVCAR-5 ovarian
[19] = tested on: MALME-3M melanoma
[20] = tested on: MOLT-4 leukemia
[21] = tested on: MCF7 breast
[22] = tested on: U251 CNS
[23] = tested on: UACC-257 melanoma
[24] = tested on: UACC-62 melanoma
[25] = tested on: OVCAR-4 ovarian
[26] = tested on: RXF 393 renal
[27] = tested on: OVCAR-8 ovarian
[28] = tested on: SK-MEL-28 melanoma
[29] = tested on: K-562 leukemia
[30] = tested on: SN12C renal
[31] = tested on: HL-60(TB) leukemia
[32] = tested on: LOX IMVI melanoma
[33] = tested on: IGROV1 ovarian
[34] = tested on: RPMI-8226 leukemia
[35] = tested on: SNB-75 CNS
[36] = tested on: HS 578T breast
[37] = tested on: EKVX NSCLC
[38] = tested on: ACHN renal
[39] = tested on: OVCAR-3 ovarian
[40] = tested on: KM12 colon
[41] = tested on: PC-3 prostate
[42] = tested on: SK-MEL-5 melanoma
[43] = tested on: UO-31 renal
[44] = tested on: NCI-H522 lung
[45] = tested on: HT29 colon
[46] = tested on: HCT-15 colon
[47] = tested on: A498 renal
[48] = tested on: HOP-92 NSCLC
[49] = tested on: MDA-MB-435
[50] = tested on: NCI-H460 lung
[51] = tested on: M14 melanoma
[52] = tested on: COLO 205 colon
[53] = tested on: HCC-2998 colon
[54] = tested on: CAKI-1 renal
[55] = tested on: NCI/ADR-RES ovarian
[56] = tested on: CCRF-CEM leukemia
[57] = tested on: SNB-19 CNS
[58] = tested on: SF-268 CNS

CCn1c(-c2nonc2N)nc2cnc(Oc3cccc(NC(=O)c4ccc(OCCN5CCOCC5)cc4)c3)cc21
7.65 µM: TGI [35]
> 17.9 µM: TGI [54]
13.7 µM: TGI [2]
> 25 µM: TGI [3] | TGI [4] | TGI [5] | TGI [6] | TGI [7] | TGI [8] | TGI [9] | TGI [10] | TGI [11] | TGI [12] | TGI [13] | TGI [14] | TGI [16] | TGI [17] | TGI [18] | TGI [19] | TGI [21] | TGI [22] | TGI [23] | TGI [24] | TGI [25] | TGI [27] | TGI [28] | TGI [29] | TGI [30] | TGI [31] | TGI [32] | TGI [34] | TGI [37] | TGI [38] | TGI [39] | TGI [40] | TGI [41] | TGI [44] | TGI [45] | TGI [46] | TGI [48] | TGI [49] | TGI [50] | TGI [51] | TGI [52] | TGI [53] | TGI [55] | TGI [56] | TGI [57] | TGI [58]
> 20.3 µM: TGI [33]
5.07 µM: TGI [43]
> 23.7 µM: TGI [47]
24.4 µM: TGI [20]
12.9 µM: TGI [26]
> 16.9 µM: TGI [1]
15.3 µM: TGI [15]
inactive: GI50 [1] 0.974 µM | GI50 [2] 0.564 µM | GI50 [3] 1.5 µM | GI50 [4] 7.33 µM | GI50 [5] 5.43 µM | GI50 [6] 0.929 µM | GI50 [7] 4.57 µM | GI50 [8] 4.9 µM | GI50 [9] 2.52 µM | GI50 [10] 1.24 µM | GI50 [11] 3.49 µM | GI50 [12] 0.886 µM | GI50 [13] 1.81 µM | GI50 [14] 1.65 µM | GI50 [15] 0.438 µM | GI50 [16] 1.94 µM | GI50 [17] 7.54 µM | GI50 [18] 5.22 µM | GI50 [19] 4.14 µM | GI50 [20] 4.29 µM | GI50 [21] 3.87 µM | GI50 [22] 7.17 µM | GI50 [23] 7.09 µM | GI50 [24] 6.39 µM | GI50 [25] 4.48 µM | GI50 [26] 1.31 µM | GI50 [27] 6.25 µM | GI50 [28] > 20.1 µM | GI50 [29] 7.38 µM | GI50 [30] 6.26 µM | GI50 [31] 10.3 µM | GI50 [32] 3.1 µM | GI50 [33] 2.98 µM | GI50 [34] 4.28 µM | GI50 [37] 0.752 µM | GI50 [38] 2.17 µM | GI50 [39] 7.17 µM | GI50 [40] 7.63 µM | GI50 [41] 2.88 µM | GI50 [42] 3.18 µM | GI50 [44] 1.41 µM | GI50 [45] 10.7 µM | GI50 [46] 2.16 µM | GI50 [47] 1.05 µM | GI50 [49] 7.39 µM | GI50 [50] 2.3 µM | GI50 [51] 12.7 µM | GI50 [52] 3.34 µM | GI50 [53] 15.2 µM | GI50 [55] 6.1 µM | GI50 [56] 0.671 µM | GI50 [57] 12.1 µM | GI50 [58] 0.724 µM
> 22 µM: TGI [42]
active: GI50 [35] 0.0594 µM | GI50 [36] 0.0149 µM | GI50 [43] 0.0089 µM | GI50 [48] 0.0025 µM | GI50 [54] 0.116 µM
8.26 µM: TGI [36]
